The values that follow come from patent US4264736A, “Antibiotic 890A10” (Merck & Co., Inc., priority 1979, dated 1981).

Structures can show the parent of a compound that is named as a salt.

For series [1], the system named is Vibrio percolans ATCC 8461. Briefly: 890 Assay Units, agar plate disc-diffusion, cephaloridine standard. It is filed as cell-based. Here is the method: II. Assay Procedure for Determining "890 Assay Units"
A conventional agar plate disc-diffusion method is employed using Vibrio percolans ATCC 8461 as tester organism. Cephaloridine is employed as a standard. Plates containing Vibrio percolans ATCC 8461 are prepared as follows. A culture of Vibrio percolans ATCC 8461 is incubated in nutrient broth-yeast extract overnight on a rotary shaker at 28° C. and then diluted to a density of 60% transmittance at 660 nm. A 33.2 ml. portion of this diluted culture is added to 1 liter of a medium composed of nutrient agar plus 0.2% yeast extract maintained at 46° C. The inoculated agar-containing medium is poured into 100×15 mn. plastic-petri dishes, 10 ml. per dish, chilled, and maintained at 2°-4° C. for up to 5 days before use.
The concentration of cephaloridine which is equivalent to 1 unit/ml. of 890A1 is determined by assay on plates prepared as above, but containing 5 ml. of inoculated medium per plate, as follows. Four concentrations of cephaloridine constitute the standard--3.12, 6.25, 12.5 and 25 mcg per ml. with the 12.5 mcg per ml. as a reference solution. The zone diameters on a 5 ml. plate for the standard are as follows:
A unit is defined as the amount of antibiotic per ml. producing a 25 mm. zone of inhibition on a 5 ml. plate as described in section I above. Therefore, in this assay a concentration of 12.5 mcg per ml. of cephaloridine is considered equivalent to 1 unit of 890A1 per ml. Since the slope of the line for cephaloridine is 4.0 calculations of the potency of a sample are made using a slope of 4.0
(Agar diffusion results depend on both activity and mobility in agar.)

A short description of series [2]: Hydroxylamine reaction (A300 decrease). It is filed as physicochemical. The text has this: The disodium salt of antibiotic 890A10 has an absorption maximum at 299 nm and a minimum at 243 nm at neutral pH in water. The E% at 300 nm of the most highly purified preparation of disodium salt is 214. The ratio A300 /A250 is 3.33 for the most purified sample, and the ratio A300 /A220 is 2.05. […] More than 94% of the absorption at 300 nm can be extinguished by reaction with hydroxylamine at neutral pH. The absorbance at 250 nm also decreases upon reaction with hydroxylamine, and the ratio of the absorbance decrease at 250 nm to the decrease at 300 nm, is approximately 0.16. […]
Antibiotic 890A10 reacts with hydroxylamine and produces a substance with greatly diminished absorbance at 300 nm. This provides the basis for a quantitative assay of the antibiotic 890A10.
The solution to be assayed is brought to 0.05 M in potassium phosphate, pH 7.4 by adding 1/20th volume of a solution containing 0.8 M K2 HPO4 and 0.2 M KH2 PO4 . Then one-hundredth volume of 1 M hydroxylamine hydrochloride is added, and the absorbance at 300 nm is measured at intervals of one-half to two minutes. […] First-order kinetics are assumed and a half-life is estimated from the absorbance decrease during the first ten minutes. From this half-life, the time is estimated beyond which no further absorbance decrease should be observed and observations are continued beyond that time. […]

For `O=C(Cc1cccs1)N[C@@H]1C(=O)N2C(C(=O)[O-])=C(C[n+]3ccccc3)CS[C@H]12` [cephaloridine], in series [1] (25 mm zone of inhibition on a 5 ml plate), the “concentration equivalent to 1 unit of 890A1 per ml” value was found to be 12.5 mcg per ml. The zone of inhibition at 3.12 µg/mL in series [1] (Comamonas terrigena, ATCC8461, 3.12 mcg/ml, 5 ml plate, read-out: Zone Diameter) came out at 16.8 mm. The zone of inhibition at 6.25 µg/mL in series [1] (Comamonas terrigena, ATCC8461, 6.25 mcg/ml, 5 ml plate, read-out: Zone Diameter) was 22.3 mm. Besides, in series [1] (Comamonas terrigena, ATCC8461, 12.5 mcg/ml (reference solution), 5 ml plate, read-out: Zone Diameter), the zone of inhibition at 12.5 µg/mL was 25 mm. Also, the zone of inhibition at 25 µg/mL in series [1] (Comamonas terrigena, ATCC8461, 25 mcg/ml, 5 ml plate, read-out: Zone Diameter) was 29.6 mm.

`CC(=O)NCCSC1=C(C(=O)O)N2C(=O)C(C(C)OS(=O)(=O)O)C2C1` (stereo not shown) [disodium salt of antibiotic 890A10]: the “absorption at 300 nm extinguished by reaction with hydroxylamine” value in series [2] (neutral pH) is “More than 94%”. Moreover, the “half-life of reaction with hydroxylamine” value in series [2] (room temperature, apparently first order, A300 decrease, pH 7.4) fell in the range of 23 to 60 s.
